Measured values: patent US20130072404A1, “APPARATUS AND PROCESSES FOR GENERATING VARIABLE CONCENTRATION OF SOLUTES IN MICRODROPLETS” (UNIVERSITE DE STRASBOURG, priority 2009, published 2013)
pIC50: −log10 of the molar value. Where “and” joins values, the source holds several entries; their conditions need not be identical. Equal values may be shown once.

What was measured:
β-galactosidase [1] = biological target: T1, β-galactosidase (Escherichia coli, UniProt P00722); experiment: Droplet microfluidic IC50 measurement, Taylor dispersion dilution (Example 1c), RBG substrate; assay type: biochemical; set-up: purchased Sigma-Aldrich Co; settings: Taylor dispersion pulse, 30 s droplet incubation, 4-parameter log-logistic fit; read-out: IC50 of PETG in the enzyme/substrate/inhibitor system
T1 sequence (P00722 2-1024 limits assumed): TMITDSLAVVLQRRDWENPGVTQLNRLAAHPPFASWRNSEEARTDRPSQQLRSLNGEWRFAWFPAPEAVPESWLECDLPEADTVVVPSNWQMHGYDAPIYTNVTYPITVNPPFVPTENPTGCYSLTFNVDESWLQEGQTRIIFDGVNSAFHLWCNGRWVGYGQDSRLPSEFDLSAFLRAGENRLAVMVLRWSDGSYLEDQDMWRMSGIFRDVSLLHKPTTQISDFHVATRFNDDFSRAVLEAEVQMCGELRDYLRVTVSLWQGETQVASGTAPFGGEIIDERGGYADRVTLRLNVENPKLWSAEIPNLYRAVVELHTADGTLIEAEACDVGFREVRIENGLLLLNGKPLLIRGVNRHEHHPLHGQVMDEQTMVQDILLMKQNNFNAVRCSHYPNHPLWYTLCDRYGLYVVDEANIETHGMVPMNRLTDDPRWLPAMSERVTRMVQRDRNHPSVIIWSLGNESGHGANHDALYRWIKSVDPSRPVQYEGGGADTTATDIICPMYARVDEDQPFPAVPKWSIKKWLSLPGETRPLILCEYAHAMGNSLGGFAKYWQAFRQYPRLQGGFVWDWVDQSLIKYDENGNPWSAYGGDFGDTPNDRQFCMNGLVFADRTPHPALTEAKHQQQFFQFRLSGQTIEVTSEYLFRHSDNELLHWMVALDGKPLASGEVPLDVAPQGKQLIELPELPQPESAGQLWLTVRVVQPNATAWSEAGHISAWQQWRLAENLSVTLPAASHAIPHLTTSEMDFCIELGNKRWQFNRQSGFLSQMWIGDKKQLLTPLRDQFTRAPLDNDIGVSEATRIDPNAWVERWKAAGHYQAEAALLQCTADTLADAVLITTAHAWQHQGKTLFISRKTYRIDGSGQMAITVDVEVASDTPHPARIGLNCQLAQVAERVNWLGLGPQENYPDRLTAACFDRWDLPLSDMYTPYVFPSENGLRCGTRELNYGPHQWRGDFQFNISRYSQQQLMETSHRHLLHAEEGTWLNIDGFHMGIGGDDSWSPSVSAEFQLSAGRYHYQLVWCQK
Description: (§1) In the examples, the model systems comprised an enzyme, a substrate, and an inhibitor for IC50 measurements and an enzyme and substrate alone for KM measurements. In all cases the enzyme was β-galactosidase (Sigma-Aldrich Co.), the substrate was resorufin β-D-galactopyranoside (RBG; Invitrogen Corporation), and the inhibitor was phenylethyl β-D-thiogalactopyranoside (PETG; Invitrogen Corporation).
A microfluidic emulsion of 90 pl aqueous microdroplets was generated by injecting the microfluidic device (FIG. 2) with an oil phase and three aqueous phases. The oil phase consisted of 1% (w/w) EA surfactant dissolved in HFE-7500 flowing at 680 μl/hr. […]
The autosampler was used to introduce a single 1 μl pulse of 120 μM PETG (the inhibitor) to the PBS flowing to the device through the silane-treated capillary. The inclusion of 40 μM of the fluorophore sodium fluorescein with the inhibitor allowed the concentration of PETG to be inferred downstream from the degree of fluorescence observed in the 500-520 nm channel. […]
The microdroplets in the initial climb in inhibitor concentration (the leading front of the inhibitor pulse) were plotted in an XY graph with initial reaction rate (inferred from resorufin fluorescence after 30 seconds of droplet incubation) against inhibitor concentration (assumed to be proportional to sodium fluorescein fluorescence). […]

β-galactosidase [2] = biological target: T1, β-galactosidase; experiment: Droplet microfluidic IC50 measurement, on-chip serial dilution network with scanning chamber (Example 1d), RBG substrate; assay type: biochemical; set-up: purchased Sigma-Aldrich Co; settings: 75 s droplet incubation, 4-parameter log-logistic fit, read-out: IC50 of PETG in the enzyme/substrate/inhibitor system
Method: as §1
An aqueous phase of 120 μM PETG (the inhibitor) and 100 μM sodium fluorescein in PBS were injected into the ‘compound’ input of the micro fluidic device (FIG. 4) at a flow rate of 111 μl/hr. A second aqueous phase, PBS, was injected into the ‘diluent’ input at a flow rate of 389 μl/hr. […]
A series of microdroplets were created containing PETG (and sodium fluorescein) at different concentrations: from zero to 30 μM (25 μM sodium fluorescein) and then from 30 μM to zero. […] The amounts of fluorescent resorufin (liberated by β-galactosidase activity) and sodium fluorescein were measured for each droplet by monitoring fluorescence intensity in the 590-625 and 500-520 nm channels, respectively.
About 10^5 microdroplets were plotted in an XY graph with initial reaction rate (inferred from resorufin fluorescence after 75 seconds of droplet incubation) against inhibitor concentration (assumed to be proportional to sodium fluorescein fluorescence). […]

For `OC[C@H]1O[C@@H](SCCc2ccccc2)[C@H](O)[C@@H](O)[C@H]1O` [PETG, phenylethyl β-D-thiogalactopyranoside], the pIC50 (β-galactosidase [1]) was 5.52 and the pIC50 (β-galactosidase [2]) was 5.66 and 5.52.
